Columns and labels:
ALS SOD1G93A mice [1] = assay: Denervation of neuromuscular junction (NMJ) in ALS SOD1G93A mice; assay type: in vivo; conditions: 250 ug (about 10 mg/Kg) i.v. weekly from day 60; gastrocnemius muscle of 75-day-old mice; vs PBS-injected mouse
Experimental: (§1) Transgenic mice of the congenic strain ALS SOD1^G93A carrying human SOD1 with the pathogenic G93A mutation (a mouse model of ALS that developed stereotyped phenotypes resembling the symptoms in ALS patients) were purchased from The Jackson Laboratory (JAX). The present peptide (i.e., FD1, FD2, FD3 or FD4) was initiated to inject intravenously in an amount of 250 ug (about 10 mg/Kg) into 60-day-old ALS SOD1^G93A mice. Injection was performed weekly. Injection of PBS served as a control group. The treated mice were monitored daily and analyzed via video tracking software.
To study the denervation of NMJ, the gastrocnemius muscles were extracted from 75-day-old ALS SOD1^G93A mice received with either PBS (control) or the present peptide (FD1, FD2, FD3 or FD4) and analyzed by immunostaining. In brief, the gastrocnemius muscles fixed with paraformaldehyde (PFA) were mounted on glass slides and treated with 2% TRITON™ for one hour. After blocking with PBS containing 5% bovine serum albumin (BSA) for 2 hours, the antibody against either synaptic vesicle protein (synapsin) or alpha-Bungarotoxin (α-BTX) was added to the slides, followed by incubating at 4° C. for 16 hours. The slides were washed with PBS containing 2% TRITON™ for three times, and then Cy2-conjugated anti-rabbit antibody and ALEXA FUOR™ 647-conjugated anti-mouse antibody were respectively added to the slides, followed by incubating at 4° C. for 16 hours. The slides were washed with PBS containing 2% TRITON™ for three times. The axon terminal of motoneurons via synapsin labeled by green fluorescent signal, while detected the acetylcholine receptor on motor endplates via α-BTX labeled by red fluorescent signal. […]. The percentage of yellow signal (green signal overlapped with red signal) among total red signal shown on the 600× magnified image area (400×400 pixels) of muscle sample from PBS- and peptide-injected SOD1-G93A ALS mouse was calculated using software. Each experiment was calculated from 13-15 images.

[2] = system: Tg(mnxl:GFP) zebrafish embryos; assay: Axonal branching of motor neurons in Tg(mnxl:GFP) zebrafish embryos; assay type: in vivo; conditions: microinjected into brain chamber at 20 hpf, examined at 30 hpf; compared to untreated and 16-a.a.-injected control groups
Experimental: The branched primary motor neurons (PMN) derived from caudal primary (CaP) motoneurons located at somites from 11th to 20th of Tg(mnxl:GFP) zebrafish embryos at 30 hours post fertilization (hpf) was examined. The untreated embryos served as control group, the embryos injected with an arbitrary non-functional 16 a.a. served as mock control group, while experimental groups were embryos injected with FD1, FD2, FD3 or FD4. […] Each data was averaged from three independent experiments.
The PBS and present peptides (i.e., FD1, FD2, FD3 and FD4) were respectively microinjected into the brain chamber of Tg (mnxl:GFP) embryos at 20 hpf. After 10 hours, the control embryos, mock control embryos and experimental embryos were monitored by anatomic microscope equipped with fluorescence system and digital camera.

[3] = system: phosphorylated cofilin (p-cofilin); assay: Western blot of phosphorylated cofilin (p-cofilin) in treated NSC34 cells; assay type: cell-based, mouse; conditions: NSC34 cells in NogoA-overexpressed Sol8 CM with peptide, compared to PBS control normalized as 1
Experimental: (§2) NSC34 cells (mouse Neuroblastoma x Spinal Cord-34 cell line) (RRID:CVCL_D356) were cultured in DMEM medium containing 10% FBS, 100 units/ml penicillin and 1% streptomycin. To investigate the effect of the present peptides (including FD1, FD2, FD3 and FD4) on neurons, NSC34 cells were cultivated in differentiation medium (DMEM medium containing 2.5% FBS, 100 units/ml penicillin and 1% streptomycin) for 24 hours, and then continued cultivating in CM obtained from culturing Sol8-NogoA cells (Sol8-NogoA CM) with or without addition of the present peptide (i.e., FD1, FD2, FD3 or FD4) in an amount of 66 ng/ml. The CM with or without containing the present peptide was refreshed daily. Cells were fixed with paraformaldehyde (PFA) for 48 hours, followed by measuring the length of neurite outgrowth using software based the neurites shown on microscopic image. Each data was averaged from three independent experiments and the length presented in each time was averaged from more than 100 counting cells. The effect of the present peptide on improving neurite outgrowth was determined by comparing the neurite length of NSC34 cells treated with the present peptide in Sol8-NogoA CM with that of NSC34 cells treated with phosphate buffered saline (PBS; serving as a control group) in Sol8-NogoA CM.
The total proteins extracted from treated NSC34 cells were analyzed by sodium dodecyl-sulfate polyacrylamide gel electrophoresis (SDS-PAGE) on a 12% polyacrylamide gel. After electrophoresis, western blotting was performed. The protein levels of phosphorylated cofilin (p-cofilin) and alpha-tubulin contained in NSC34 cells cultured in medium with addition of either PBS (served as control) or the present peptide (i.e., FD1, FD2, FD3 or FD4) were determined using antibodies specifically against p-cofilin and alpha-tubulin, respectively. The intensity shown on the blot was quantified by software. Each data was averaged from three independent experiments. The relative intensity among groups was based on the comparison with that of control group set as 1.

ALS SOD1G93A mice [4] = assay: Moving capability of ALS model mice (SOD1 G93A); assay type: in vivo, mouse; conditions: 250 ug (about 10 mg/Kg) i.v. weekly from day 60; measured at 124 days after birth; vs PBS-injected control ALS mice
Experimental: as §1
The moving capability of ALS model mice (SOD1 G93A) injected with PBS or the present peptide (i.e., FD1, FD2, FD3 or FD4) was determined via measuring the moving trajectory of each treated mouse at 124 days after birth.

ALS SOD1G93A mice [5] = assay: Survival of ALS SOD1G93A mice; assay type: in vivo, mouse; conditions: 250 ug (about 10 mg/Kg) i.v. weekly from day 60; for cumulated survival rate compared to PBS-injected control mice: 5 mice per group vs 7 PBS controls; for average survival days: 5 mice per group, PBS control 130.0
Experimental: as §1
The initial total number of ALS mice in each group (7 and 5 samples for control and FD-treated groups, respectively) was set as a 100% survival rate. During experimental period, once the ALS mouse was dead, the number and its survival days were recorded, and the cumulative survival rate was counted. When all ALS mice within the experimental group were dead, the cumulative survival rate was considered as 0%. In case that either the weight loss of a mouse was greater than 20% of original or a mouse that was not capable to eat and drink normally, euthanasia was performed and considered it as a non-survival sample. The survival days for each group were averaged from seven samples for PBS-injected control group and five samples for FD-injected experimental groups.

NSC34 cells = assay: Neurite outgrowth of NSC34 cells cultured in Sol8-NogoA conditioned medium; assay type: cell-based, mouse; conditions: Sol8-NogoA CM with peptide 66 ng/ml, 48 hours; PBS in Sol8-NogoA CM 53.6 μm, PBS in Sol8 CM 99.4 μm
Experimental: . After 24-48 hours, the supernatant containing viral particles was collected and centrifuged at a speed of 1,250 rpm, followed by adding to Sol8 cells (ATCC, CRL-2174) pretreated with 8 μg/ml POLYBRENE®. 24 hour later, the fresh DMEM medium containing 10% fetal bovine serum (FBS), 100 units/ml penicillin, 1% streptomycin and 4 ug/ml puromycin was added to the Sol8 cells so as to obtain NogoA-overexpressed Sol8 cells.
The wild-type Sol8 cells and NogoA-overexpressed Sol8 cells (Sol8-NogoA cells) were respectively cultured and differentiated in DMEM medium containing 10% FBS, 100 units/ml penicillin and 1% streptomycin. Two days later, 1 μg/μl of doxycycline was added to the medium so as to induce the expression of target genes. The culture medium was collected and the fresh medium containing doxycycline was added to the Sol8-NogoA cells every 24 hours. The collected culture medium was then centrifuged at a speed of 3,000 rpm for 5 minutes at room temperature, and the supernatant was harvested therefrom served as CM for the following assays.
as §2

Row | Sequence | percentage of co-localized synapsin-1 and α-BTX (NMJ integrity) (ALS SOD1G93A mice [1]) | percentage of zebrafish embryos exhibiting branched motor neurons [2] | p-cofilin protein level [3] | moving distance (ALS SOD1G93A mice [4]) | cumulated survival rate compared to PBS-injected control mice (ALS SOD1G93A mice [5]) | average survival days (ALS SOD1G93A mice [5]) [days] | neurite length of NSC34 cells (NSC34 cells) [μm]
1 | WEAFARGTKALMRQVV [FD4, mutant of FD1, D13 substituted with R and E14 with Q] | significantly higher | significantly increased | significantly reduced | significantly improved | longer survival time | 139.0 | 95.8
2 | WEAFARGTKALMDEVV [FD1, short peptide derived from human PGK1, 16 a.a] | significantly higher | significantly increased | significantly reduced | significantly improved | longer survival time | 140.0 | 89.2
3 | WEAFARGTKPLMDEVV [FD2, mutant of FD1, alanine at position 10 substituted with proline] | significantly higher | significantly increased | significantly reduced | significantly improved | longer survival time | 147.0 | 66.6
4 | WEAFARGTRALMDEVV [FD3, mutant of FD1, lysine at position 9 substituted with arginine] | significantly higher | significantly increased | significantly reduced | significantly improved | not shown difference | 130.8 | 88.2
